Reference: patent publication US8420657B2 (Novartis AG, priority 2008, dated 2013)

Assays:
[1] = system: JAK1/JAK2-dependent nuclear translocation of STAT1-GFP in HT1080 fibrosarcoma cells; assay: STAT1 nuclear translocation assay (Cellomics), IFN-γ stimulated HT1080 STAT1-GFP cells; type: cell-based; conditions: Homo sapiens, HT-1080, STAT1 translocation pathway
Summary of the method: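 HT1080 cells stably expressing STAT1-GFP, pre-treated 30 min with compound (10 μM–0.003 μM, 0.1% DMSO), then stimulated 2 h with 100 ng/ml IFN-γ, fixed and Hoechst-stained. Nuclear-cytoplasmic GFP differential imaged over ≥1000 cells/well, normalised to unstimulated and DMSO-stimulated wells for IC50.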

[2] = biological target: T1, GST-JAK2(808-1132) (Homo sapiens, UniProt O60674); assay: JAK2 kinase assay (Caliper mobility shift, LabChip 3000); type: biochemical
T1 construct: GST-JAK2(808-1132); purchased Invitrogen (Carlsbad, USA) #4288
T1 sequence (O60674 808-1132): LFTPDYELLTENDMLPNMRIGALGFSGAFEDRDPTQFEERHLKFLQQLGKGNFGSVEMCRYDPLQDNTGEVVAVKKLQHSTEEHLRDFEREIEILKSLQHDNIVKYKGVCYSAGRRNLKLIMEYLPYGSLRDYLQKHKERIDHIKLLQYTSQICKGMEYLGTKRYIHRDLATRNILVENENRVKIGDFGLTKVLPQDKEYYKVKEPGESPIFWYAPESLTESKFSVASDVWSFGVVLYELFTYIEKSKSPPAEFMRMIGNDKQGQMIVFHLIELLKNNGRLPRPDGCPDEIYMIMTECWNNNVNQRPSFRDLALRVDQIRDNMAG
Summary of the method: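 Recombinant GST-JAK2(808-1132) kinase domain with FITC-labelled JAK3tide peptide substrate and ATP; 60 min at 30 °C, EDTA stop. Substrate/product ratio read by microfluidic mobility shift; compounds at 8 final concentrations, 10 to 0.003 μM.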

Q: For `O=S1(=O)CCN(Cc2c(F)cc(-n3ccc4cnc(Nc5ccccn5)nc43)cc2F)CC1` [Example 181, {7-[4-(1,1-Dioxido-thiomorpholin-4-ylmethyl)-3,5-difluoro-phenyl]-7H-pyrrolo[2,3-d]pyrimidin-2-yl}-pyridin-2-yl-amine], which IC50 [1] is on record?
A: Its IC50 is 16600 nM.

Q: What about the IC50 [2] of the same molecule?
A: The IC50 was 15.5 nM.

Q: Which IC50 [1] does the source give for `O=S1(=O)CCN(Cc2c(F)cc(-n3ccc4cnc(Nc5cccnc5)nc43)cc2F)CC1` [Example 182, {7-[4-(1,1-Dioxido-thiomorpholin-4-ylmethyl)-3,5-difluoro-phenyl]-7H-pyrrolo[2,3-d]pyrimidin-2-yl}-pyridin-3-yl-amine] here?
A: The IC50 was 125 nM.

Q: And the IC50 [2]?
A: The IC50 was less than 3 nM.

Q: For `O=S1(=O)CCN(Cc2c(F)cc(-n3ccc4cnc(Nc5ccncc5)nc43)cc2F)CC1` [Example 183, {7-[4-(1,1-Dioxido-thiomorpholin-4-ylmethyl)-3,5-difluoro-phenyl]-7H-pyrrolo[2,3-d]pyrimidin-2-yl}-pyridin-4-yl-amine], which IC50 [1] is on record?
A: The IC50 was 95 nM.

Q: What about the IC50 [2] of the same molecule?
A: Its IC50 is 3.3 nM.

Q: How did the IC50 [1] turn out when `N#Cc1ccc(Nc2ncc3ccn(-c4cc(F)c(CN5CCS(=O)(=O)CC5)c(F)c4)c3n2)cc1` [Example 185, 4-{7-[4-(1,1-Dioxido-thiomorpholin-4-ylmethyl)-3,5-difluoro-phenyl]-7H-pyrrolo[2,3-d]pyrimidin-2-ylamino}-benzonitrile] was run?
A: Its IC50 is 290 nM.

Q: And the IC50 [2]?
A: Its IC50 is less than 3 nM.

Q: With `CN1CCN(C(=O)c2ccc(Nc3ncc4ccn(-c5cc(F)c(CN6CCS(=O)(=O)CC6)c(F)c5)c4n3)cc2C(F)(F)F)CC1` [Example 186, (4-{7-[4-(1,1-Dioxido-thiomorpholin-4-ylmethyl)-3,5-difluoro-phenyl]-7H-pyrrolo[2,3-d]pyrimidin-2-ylamino}-2-trifluoromethyl-phenyl)-(4-methyl-piperazin-1-yl)-methanone] as the molecule, how does the IC50 [1] read?
A: Its IC50 is 95 nM.

Q: And the IC50 [2]?
A: The IC50 was less than 3 nM.

Q: `O=C(c1ccc(Nc2ncc3ccn(-c4cc(F)c(CN5CCS(=O)(=O)CC5)c(F)c4)c3n2)cc1)N1CCOCC1` [Example 187, (4-{7-[4-(1,1-Dioxido-thiomorpholin-4-ylmethyl)-3,5-difluoro-phenyl]-7H-pyrrolo[2,3-d]pyrimidin-2-ylamino}-phenyl)-morpholin-4-yl-methanone] was tested. Which IC50 [1] did it give?
A: Its IC50 is 55 nM.

Q: What about the IC50 [2] of the same molecule?
A: The IC50 was less than 3 nM.

Q: `CCN1CCN(Cc2ccc(Nc3ncc4ccn(-c5cc(F)c(CN6CCS(=O)(=O)CC6)c(F)c5)c4n3)cc2)CC1` [Example 188, {7-[4-(1,1-Dioxido-thiomorpholin-4-ylmethyl)-3,5-difluoro-phenyl]-7H-pyrrolo[2,3-d]pyrimidin-2-yl}-[4-(4-ethyl-piperazin-1-ylmethyl)-phenyl]-amine] was tested. Which IC50 [1] did it give?
A: Its IC50 is 60 nM.

Q: And the IC50 [2]?
A: The IC50 was less than 3 nM.

Q: For `COCc1ccc(Nc2ncc3ccn(-c4cc(F)c(C(=O)N5CCN(C)CC5)c(F)c4)c3n2)cc1` [Example 189, {2,6-Difluoro-4-[2-(4-methoxymethyl-phenylamino)-pyrrolo[2,3-d]pyrimidin-7-yl]-phenyl}-(4-methyl-piperazin-1-yl)-methanone], which IC50 [1] is on record?
A: Its IC50 is 846 nM.

Q: What about the IC50 [2] of the same molecule?
A: Its IC50 is 9.5 nM.

Q: With `CN1CCN(C(=O)c2c(F)cc(-n3ccc4cnc(Nc5ccc(CN6CCS(=O)(=O)CC6)cc5)nc43)cc2F)CC1` [Example 190, (4-{2-[4-(1,1-Dioxido-thiomorpholin-4-ylmethyl)-phenylamino]-pyrrolo[2,3-d]pyrimidin-7-yl}-2,6-difluoro-phenyl)-(4-methyl-piperazin-1-yl)-methanone] as the molecule, how does the IC50 [1] read?
A: The IC50 was 439 nM.

Q: And the IC50 [2]?
A: Its IC50 is 5.2 nM.

Q: `CCN1CCN(Cc2ccc(Nc3ncc4ccn(-c5cc(F)c(C(=O)N6CCN(C)CC6)c(F)c5)c4n3)cc2)CC1` [Example 191, (4-{2-[4-(4-Ethyl-piperazin-1-ylmethyl)-phenylamino]-pyrrolo[2,3-d]pyrimidin-7-yl}-2,6-difluoro-phenyl)-(4-methyl-piperazin-1-yl)-methanone] was tested. Which IC50 [1] did it give?
A: The IC50 was 3920 nM.

Q: And the IC50 [2]?
A: Its IC50 is 28.5 nM.

Q: Which IC50 [1] does the source give for `CN1CCN(C(=O)c2c(F)cc(-n3ccc4cnc(Nc5ccc(CN6CCOCC6)cc5)nc43)cc2F)CC1` [Example 192, {2,6-Difluoro-4-[2-(4-morpholin-4-ylmethyl-phenylamino)-pyrrolo[2,3-d]pyrimidin-7-yl]-phenyl}-(4-methyl-piperazin-1-yl)-methanone] here?
A: Its IC50 is 1490 nM.

Q: And the IC50 [2]?
A: The IC50 was 11.5 nM.

Q: With `CC(C)Oc1ccc(Nc2ncc3ccn(-c4cc(F)c(CN5CCS(=O)(=O)CC5)c(F)c4)c3n2)cc1` [Example 194, {7-[4-(1,1-Dioxido-thiomorpholin-4-ylmethyl)-3,5-difluoro-phenyl]-7H-pyrrolo[2,3-d]pyrimidin-2-yl}-(4-isopropoxy-phenyl)-amine] as the molecule, how does the IC50 [1] read?
A: Its IC50 is 202 nM.

Q: And the IC50 [2]?
A: The IC50 was less than 3 nM.

Q: With `O=C(c1ccc(Nc2ncc3ccn(-c4cc(F)c(CN5CCOCC5)c(F)c4)c3n2)cn1)N1CCOCC1` [Example 195, {5-[7-(3,5-Difluoro-4-morpholin-4-ylmethyl-phenyl)-7H-pyrrolo[2,3-d]pyrimidin-2-ylamino]-pyridin-2-yl}-morpholin-4-yl-methanone] as the molecule, how does the IC50 [1] read?
A: Its IC50 is 352 nM.

Q: And the IC50 [2]?
A: Its IC50 is 5.3 nM.

Q: What does the source list for `CCN1CCN(Cc2ccc(Nc3ncc4ccn(-c5cc(F)c(CN6CCOCC6)c(F)c5)c4n3)cc2)CC1` [Example 196, [7-(3,5-Difluoro-4-morpholin-4-ylmethyl-phenyl)-7H-pyrrolo[2,3-d]pyrimidin-2-yl]-[4-(4-ethyl-piperazin-1-ylmethyl)-phenyl]-amine]?
A: IC50 [1]: 176 nM; IC50 [2]: < 3 nM

Q: Which IC50 [1] does the source give for `Fc1cc(-n2ccc3cnc(Nc4ccc(CN5CCOCC5)cc4)nc32)cc(F)c1CN1CCOCC1` [Example 197, [7-(3,5-Difluoro-4-morpholin-4-ylmethyl-phenyl)-7H-pyrrolo[2,3-d]pyrimidin-2-yl]-(4-morpholin-4-ylmethyl-phenyl)-amine] here?
A: The IC50 was 90 nM.

Q: And the IC50 [2]?
A: Its IC50 is less than 3 nM.

Q: For `CN1CCN(Cc2cccc(Nc3ncc4ccn(-c5cc(F)c(CN6CCOCC6)c(F)c5)c4n3)c2)CC1` [Example 199, [7-(3,5-Difluoro-4-morpholin-4-ylmethyl-phenyl)-7H-pyrrolo[2,3-d]pyrimidin-2-yl]-[3-(4-methyl-piperazin-1-ylmethyl)-phenyl]-amine], which IC50 [1] is on record?
A: The IC50 was 222 nM.

Q: What about the IC50 [2] of the same molecule?
A: The IC50 was less than 3 nM.

Q: For `CN1CCN(C(=O)c2ccc(Nc3ncc4ccn(-c5cc(F)c(CN6CCOCC6)c(F)c5)c4n3)cc2C(F)(F)F)CC1` [Example 201, {4-[7-(3. 5-Difluoro-4-morpholin-4-ylmethyl-phenyl)-7H-pyrrolo[2,3-d]pyrimidin-2-ylamino]-2-trifluoromethyl-phenyl}-(4-methyl-piperazin-1-yl)-methanone], which IC50 [1] is on record?
A: The IC50 was 199 nM.

Q: What about the IC50 [2] of the same molecule?
A: The IC50 was less than 3 nM.

Q: For `O=C(c1cccc(Nc2ncc3ccn(-c4cc(F)c(CN5CCOCC5)c(F)c4)c3n2)c1)N1CCOCC1` [Example 202, {3-[7-(3 5-Difluoro-4-morpholin-4-ylmethyl-phenyl)-7H-pyrrolo[2,3-d]pyrimidin-2-ylamino]-phenyl}-morpholin-4-yl-methanone], which IC50 [1] is on record?
A: Its IC50 is 198 nM.

Q: What about the IC50 [2] of the same molecule?
A: Its IC50 is 4.5 nM.

Q: What does the source list for `Fc1cc(-n2ccc3cnc(Nc4ccccc4)nc32)cc(F)c1CN1CCOCC1` [Example 208, [7-(3,5-Difluoro-4-morpholin-4-ylmethyl-phenyl)-7H-pyrrolo[2,3-d]pyrimidin-2-yl]-phenyl-amine]?
A: IC50 [1]: 442 nM; IC50 [2]: 4.8 nM

Q: For `Cc1ccc(Nc2ncc3ccn(-c4ccc(CC(=O)N5CCN(CCO)CC5)cc4)c3n2)cc1C` [Example 212, 2-{4-[2-(3,4-Dimethyl-phenylamino)-pyrrolo[2,3-d]pyrimidin-7-yl]-phenyl}-1-[4-(2-hydroxy-ethyl)-piperazin-1-yl]-ethanone], which IC50 [1] is on record?
A: The IC50 was 106 nM.

Q: What about the IC50 [2] of the same molecule?
A: Its IC50 is less than 3 nM.

Q: `Cc1cc(Nc2ncc3ccn(-c4cc(F)c(C(=O)N5CCOCC5)c(F)c4)c3n2)ccc1F` [Example 213, {2,6-Difluoro-4-[2-(4-fluoro-3-methyl-phenylamino)-pyrrolo[2,3-d]pyrimidin-7-yl]-phenyl}-morpholin-4-yl-methanone] was tested. Which IC50 [1] did it give?
A: The IC50 was 728 nM.

Q: What about the IC50 [2] of the same molecule?
A: Its IC50 is 5.9 nM.

Q: What does the source list for `O=C(c1c(F)cc(-n2ccc3cnc(Nc4ccccc4)nc32)cc1F)N1CCOCC1` [Example 214, [2,6-Difluoro-4-(2-phenylamino-pyrrolo[2,3-d]pyrimidin-7-yl)-phenyl]-morpholin-4-yl-methanone]?
A: IC50 [1]: 643 nM; IC50 [2]: 5.1 nM

Q: What does the source list for `O=C(c1c(F)cc(-n2ccc3cnc(Nc4ccccn4)nc32)cc1F)N1CCOCC1` [Example 215, {2,6-Difluoro-4-[2-(pyridin-2-ylamino)-pyrrolo[2,3-d]pyrimidin-7-yl]-phenyl}-morpholin-4-yl-methanone]?
A: IC50 [1]: 10000 nM; IC50 [2]: 420 nM

Q: Which IC50 [1] does the source give for `O=C(c1c(F)cc(-n2ccc3cnc(Nc4cccnc4)nc32)cc1F)N1CCOCC1` [Example 216, {2,6-Difluoro-4-[2-(pyridin-3-ylamino)-pyrrolo[2,3-d]pyrimidin-7-yl]-phenyl}-morpholin-4-yl-methanone] here?
A: The IC50 was 579 nM.

Q: And the IC50 [2]?
A: Its IC50 is 3.3 nM.

Q: What does the source list for `O=C(c1c(F)cc(-n2ccc3cnc(Nc4ccncc4)nc32)cc1F)N1CCOCC1` [Example 217, {2,6-Difluoro-4-[2-(pyridin-4-ylamino)-pyrrolo[2,3-d]pyrimidin-7-yl]-phenyl}-morpholin-4-yl-methanone]?
A: IC50 [1]: 993 nM; IC50 [2]: 7.3 nM

Q: Which results are given for `O=C(c1c(F)cc(-n2ccc3cnc(Nc4ccncn4)nc32)cc1F)N1CCOCC1` [Example 218, {2,6-Difluoro-4-[2-(pyrimidin-4-ylamino)-pyrrolo[2,3-d]pyrimidin-7-yl]-phenyl}-morpholin-4-yl-methanone]?
A: IC50 [1]: 10000 nM; IC50 [2]: 1050 nM

Q: With `Cc1ccc(Nc2ncc3ccn(-c4cc(F)c(C(=O)N5CCOCC5)c(F)c4)c3n2)cn1` [Example 219, {2,6-Difluoro-4-[2-(6-methyl-pyridin-3-ylamino)-pyrrolo[2,3-d]pyrimidin-7-yl]-phenyl}-morpholin-4-yl-methanone] as the molecule, how does the IC50 [1] read?
A: Its IC50 is 518 nM.

Q: What about the IC50 [2] of the same molecule?
A: The IC50 was 7.7 nM.

Q: How did the IC50 [1] turn out when `COc1ccc(Nc2ncc3ccn(-c4cc(F)c(C(=O)N5CCOCC5)c(F)c4)c3n2)cn1` [Example 220] was run?
A: The IC50 was 880 nM.

Q: What about the IC50 [2] of the same molecule?
A: The IC50 was 11 nM.
